In patent US10159672B2 (PARION SCIENCES, INC., priority 2011, dated 2018):

Assay: Clearance from the ocular surface (extraction from PRT threads, UPLC)
Assay type: in vivo, Rats, Sprague Dawley
Protocol: Procedure for P-1046 (Compound 15 Formula I, aka I, aka P-1046, aka 1046): […]
Extraction from PRT Threads:
All PRT threads were collected in eppendorf tubes and stored at −20 C until the time of drug concentration analysis. P-1046 was extracted from threads and analyzed as follows:
• 1. 200 μL of 70% ACN (70% ACN, 30% H2O) was added into sample tubes which have threads in them. • 2. Tubes from Step 1 were vortexed for 30 seconds and sonicated for 1 minute to fully immerse the threads. • 3. The sample solutions were incubated for 4 hours at room temperature. • 4. Samples were vortexed again for 30 seconds. • 5. 75 μL, of the each sample solution (from step 4) was removed into 96-well UPLC plate with an additional 75 μL of mobile phase A (5 mM ammonium formate, 0.1% formic acid in H2O) added into each sample well. • 6. Analytical standards (10 mM, 1 mM, 100 µM, 10 µM, 1 µM, 100 nM, Buffer) were prepared identically to the thread solutions. • 7. Drug concentrations from all samples were analyzed by UPLC. Solubility and Stability Testing for Compound 15 (Formula I, aka I, aka P-1046, aka 1046): Procedure for Solubility and Stability Evaluation: • 1. Prepare 2.8% NaCl and 25 mM citrate buffer, pH of the solution 4.2. The osmolality of the solution is approximately 940 mOsM. • 2. Add appropriate amount of buffer solution to a test compound to make approximate concentration of 10 mg/mL. • 3. Vortex the solution for 15 seconds, sonicate for 30 seconds, again vortex for 60 seconds and visually observe the solution. • 4. Calculate final concentration of the solution by a spectrophotometer. • Remove a portion of solution and dilute it to 1:10 ratio. Put this solution at 50° C. for the accelerated stability study for 10 days. • Obtain stability data by HPLC analysis • 5. Prepare 2.8% NaCl and 25 mM citrate buffer, pH of the solution 4.2. The osmolality of the solution is approximately 940 mOsM. • 6. Add appropriate amount of buffer solution to a test compound to make approximate concentration of 10 mg/mL. • 7. […]

CN(C)C(=O)[C@H](CCCCNC(=N)N)NC(=O)[C@H](CCc1ccc(CCCCNC(=N)NC(=O)c2nc(Cl)c(N)nc2N)cc1)N(C)C [Compound I, 3,5-diamino-6-chloro-N-(N-(4-(4-((S)-3-(dimethylamino)-4-((S)-1-(dimethylamino)-6-guanidino-1-oxohexan-2-ylamino)-4-oxobutyl)phenyl)butyl)carbamimidoyl)pyrazine-2-carboxamide]
Clearance from the ocular surface, profile (all concentrations tested): apparent bi-phasic clearance
Concentration on ocular surface during the slow clearance phase vs IC50 (dosed concentration >1 mM, 30 to 120 minutes post-dose): well above the IC50
Time by which the majority of the drug is cleared from the ocular surface (post-dose, followed by slow clearance phase 30 to 120 minutes): ≤ 30 min
